This is an account of results in PMC12677652, “Procyanidin B3 and Its Derivatives Alleviate Neuronal Injury by Targeting G3BP1 for Ischemic Stroke Therapy” (Advanced Science, 2025).

Like-named read-outs stand apart in the source and are kept apart here.

The subject of one series is SG in HT22 cells. The series is described as follows: Immunofluorescence staining of G3BP1 to detect SG level in HT22 cells under OGD/R. The format is cell-based. Particulars: for ratio of SG‐positive cells: 100 µM; for SG levels: after 6 h of OGD, 24 h treatment. The procedure: Immunofluorescence analysis of the stress granule (SG) core component G3BP1 was utilized to investigate the SG formation in HT22 cells and the cortex. HT22 cells were treated with 4% paraformaldehyde for 15 min. Then the fixed brain tissue slices and HT22 cells were permeabilized for 5 min using 1% Triton X‐100 (Sigma‐Aldrich, USA) dissolved in PBS and blocked with a PBS solution containing 10% goat serum for 1 h, followed by incubation with anti‐G3BP1 antibody (catalog no. 66486‐1‐Ig, Proteintech, China) at 4 °C overnight. After being washed with PBS 3 times for 5 min each, samples were incubated with secondary antibody (Alexa Fluor 568 Goat anti‐mouse IgG, Invitrogen, USA) in the dark for 2 h at room temperature. The nucleus was stained with DAPI. Fluorescent pictures were obtained with a fluorescence microscope (Carl Zeiss, Germany).

Series [1] is described as follows: Pharmacokinetic study in mice, i.p. injection. In kind it is in vivo. The note with it: C57BL/6, mouse, ip, 48 mg kg^−1 i.p., plasma, mean ± S.D., n = 3. The procedure:
Pharmacokinetic analyses were performed using a LC‐40D XS HPLC system (Shimadzu, Japan) coupled with a Sciex Triple Quad 5500 mass spectrometer (AB SCIEX, USA). Tested compounds PB3 and 6c were administered by i.p. injection (48 mg kg^−1, formulation solvent: normal saline). Blood samples were drawn from the retro‐orbital vein at 0.083, 0.25, 0.5, 1, 2, 4, 8, and 24 h post‐injection with EDTA dipotassium salt as an anticoagulant. Subsequently, the plasma fractions were collected in Eppendorf tubes and centrifuged at 4000 g for 5 min at 4 °C and stored at −80 °C for analysis. Brain tissue was mixed with four‐fold normal saline for homogenization (10 s per time with a 10 s interval for 3–5 times). Then, the mixture was centrifuged at 4000 g for 5 min at 4 °C, and the supernatant was stored at −80 °C for analysis. For sample preparation, the desired serial concentrations of working solutions were achieved by diluting a stock solution of analyte with 50% methanol in water solution. 2 µL of working solutions were added to 10 µL of the blank C57BL/6 mouse plasma/brain homogenate to achieve calibration standards of 10–10 000 ng mL^−1 (10, 20, 100, 200, 1000, 2000, 4000, 10 000 ng mL^−1) in a total volume of 12 µL. Three quality control samples at 20 ng mL^−1, 1600 ng mL^−1, and 8000 ng mL^−1 for plasma were prepared independently of those used for the calibration curves. These QC samples were prepared on the day of analysis in the same way as calibration standards.

The nature of series [2]: Brain and plasma concentrations after MCAO/reperfusion (BBB assessment). Particulars: C57BL/6, mouse, ip, 0.5 h after administration, 48 mg kg^−1 i.p., after 1.5 h of MCAO followed by reperfusion; for Kp at 0.5 h: brain / plasma, read-out: CBrain/Cplasma. The format is in vivo, mice. Here is the method:
After 1.5 h of MCAO followed by reperfusion, each of 1 and 6c was administered at a dose of 48 mg kg^−1 intraperitoneally to mice, and the brain and plasma concentrations of each compound were measured at 0.5 h after administration. The ratios of brain to plasma concentrations of 1 and 6c were 0.37 and 0.57, respectively, confirming that the BBB permeability of compounds benefited from higher lipophilicity (Table 2 ). The decrease in 6c concentration in vivo may be due to changes in metabolic routes. Tertiary carbon atoms and terminal carbon atoms are easily metabolized through oxidative pathways,^[ [55] ^] so the introduction of isopropyl groups leads to the production of more metabolites, resulting in a decrease in the area under curve (AUC). The metabolites of oligomeric proanthocyanidins and their analogues are quite complex. Although there are a large number of metabolites, most of them have a flavan‐3‐ol core structure and contain many phenolic hydroxyl groups.^[ [56] ^] As mentioned above, phenolic hydroxyl groups are important active functional groups to exert neuroprotective effects, so it can be inferred that metabolites of 6c also have similar activity to 6c. In future work, radiolabeled pharmacokinetic studies and metabolite studies are needed to further elucidate the metabolism of the preferred compound.^[ [57] ^] Pharmacokinetic analyses were performed using a LC‐40D XS HPLC system (Shimadzu, Japan) coupled with a Sciex Triple Quad 5500 mass spectrometer (AB SCIEX, USA). Tested compounds PB3 and 6c were administered by i.p. injection (48 mg kg^−1, formulation solvent: normal saline). Blood samples were drawn from the retro‐orbital vein at 0.083, 0.25, 0.5, 1, 2, 4, 8, and 24 h post‐injection with EDTA dipotassium salt as an anticoagulant. Subsequently, the plasma fractions were collected in Eppendorf tubes and centrifuged at 4000 g for 5 min at 4 °C and stored at −80 °C for analysis. Brain tissue was mixed with four‐fold normal saline for homogenization (10 s per time with a 10 s interval for 3–5 times). Then, the mixture was centrifuged at 4000 g for 5 min at 4 °C, and the supernatant was stored at −80 °C for analysis. For sample preparation, the desired serial concentrations of working solutions were achieved by diluting a stock solution of analyte with 50% methanol in water solution. 2 µL of working solutions were added to 10 µL of the blank C57BL/6 mouse plasma/brain homogenate to achieve calibration standards of 10–10 000 ng mL^−1 (10, 20, 100, 200, 1000, 2000, 4000, 10 000 ng mL^−1) in a total volume of 12 µL. Three quality control samples at 20 ng mL^−1, 1600 ng mL^−1, and 8000 ng mL^−1 for plasma were prepared independently of those used for the calibration curves. These QC samples were prepared on the day of analysis in the same way as calibration standards.

For series [3], the target named is T1, recombinant human G3BP1 protein (Homo sapiens, UniProt Q13283).
T1 construct: purchased Hubei Ipodix Biotechnology Co., Ltd. (China)
T1 sequence (Q13283 whole entry): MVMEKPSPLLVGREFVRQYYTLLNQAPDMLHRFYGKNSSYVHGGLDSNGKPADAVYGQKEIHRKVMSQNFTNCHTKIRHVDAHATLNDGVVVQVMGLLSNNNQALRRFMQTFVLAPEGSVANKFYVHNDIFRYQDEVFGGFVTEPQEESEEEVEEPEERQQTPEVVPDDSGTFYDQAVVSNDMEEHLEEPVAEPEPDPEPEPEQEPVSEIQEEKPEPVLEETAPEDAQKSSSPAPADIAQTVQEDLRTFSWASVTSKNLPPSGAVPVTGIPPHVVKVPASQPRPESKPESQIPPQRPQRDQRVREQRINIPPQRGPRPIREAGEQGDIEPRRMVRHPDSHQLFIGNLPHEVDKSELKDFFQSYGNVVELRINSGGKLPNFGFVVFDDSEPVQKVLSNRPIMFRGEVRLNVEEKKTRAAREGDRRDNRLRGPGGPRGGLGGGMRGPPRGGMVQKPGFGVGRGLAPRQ
Nature of the series: SPR analysis of binding to G3BP1 (Biacore T200, CM5 chip). Particulars: 1:1 binding model, running buffer PBS. The procedure: The SPR analyses were carried out using a Biacore T200 instrument (GE Healthcare, USA) with the Series Sensor Chip CM5 (GE Healthcare, USA). The recombinant human G3BP1 protein was purchased from Hubei Ipodix Biotechnology Co., Ltd. (China). The protein was immobilized on the chip using an amine coupling kit (GE Healthcare, USA). The blank channel served as the negative control. The binding experiments were performed at a flow rate of 30 µL min^−1. For the measurement of the kinetic parameters of PB3 and 6c, gradient dilutions of PB3 and 6c were injected into the immobilized protein. The running buffer was PBS. All biosensor data were processed and analyzed with Biacore T200 Evaluation software version 3.2 (GE Healthcare, USA) and fitted by a 1:1 binding model.
In general terms: Surface plasmon resonance follows binding to a sensor surface in real time, without labels.

Take `Oc1cc(O)c2c(c1)O[C@H](c1ccc(O)c(O)c1)[C@@H](O)[C@@H]2c1c(O)cc(O)c2c1O[C@H](c1ccc(O)c(O)c1)[C@@H](O)C2` [Compound 1, procyanidin B3]: the “ratio of SG‐positive cells” value with SG in HT22 cells (1 h after administration) was “did not change significantly”. The “ratio of SG‐positive cells” value with SG in HT22 cells (after 24 h of reoxygenation) is on record as “significantly increased”. Moreover, the SG levels result with SG in HT22 cells was “enhance SG levels in a dose‐dependent manner”. For the same molecule, in series [1], the area under the curve AUC(0-inf) (usually the area under the concentration-time curve extrapolated to infinity) worked out at 22300 ± 1970 ng·h/mL; the AUC(0-t) (usually the area under the concentration-time curve up to a stated or last time point) amounted to 22200 ± 1940 ng·h/mL; the peak level (Cmax) was 30400 ± 1790 ng/mL; the MRT inf (commonly a mean duration of stay, worked out from the concentration-time curve) stood at 1.42 ± 0.06 h. Further, in series [1], the half-life (commonly the time needed for the level to fall by half in the phase considered) was 4.43 ± 0.34 h. The Kp at 0.5 h in series [2] was found to be 0.37. In addition, the concentration at 0.5 h in series [2] (brain, read-out: CBrain) is 4790 ± 1610 ng/g. In series [2] (plasma, read-out: Cplasma), the concentration at 0.5 h turned out to be 13000 ± 757 ng/mL. The Kd (as a rule, the equilibrium constant for the complex coming apart) in series [3] turned out to be 44 nM.
For the molecule `CC(C)c1c(O)cc(O)c2c1O[C@H](c1ccc(O)c(O)c1)[C@@H](O)[C@@H]2c1c(O)cc(O)c2c1O[C@H](c1ccc(O)c(O)c1)[C@@H](O)C2` [Compound 6c, 8‐Isopropyl‐(+)‐Catechin‐(4α,8)‐(+)‐Catechin], the SG levels result with SG in HT22 cells is given as “mediate SG upregulation”. In series [1], the area under the curve AUC(0-inf) was found to be 10400 ± 1280 ng·h/mL, the exposure AUC(0-t) turned out to be 10200 ± 1250 ng·h/mL, the peak level (Cmax) was 25200 ± 2500 ng/mL and the MRT inf is 0.76 ± 0.03 h. The half-life in series [1] is 2.01 ± 0.26 h. Also, the Kp at 0.5 h in series [2] came out at 0.57. The concentration at 0.5 h in series [2] (brain, read-out: CBrain) stood at 2810 ± 489 ng/g. Further, in series [2] (plasma, read-out: Cplasma), the concentration at 0.5 h came out at 4960 ± 1590 ng/mL. Besides, the Kd in series [3] stood at 58 nM.
